Experimental data: ChEMBL document CHEMBL4665820, “Discovery of VU6027459: A First-in-Class Selective and CNS Penetrant mGlu Positive Allosteric Modulator Tool Compound” (ACS Med Chem Lett, 2020)
Blank lines part the entries; values can stand above or below the compound they belong to.

Key:
[1] = molecular target: T1, Metabotropic glutamate receptor 7 (Rattus norvegicus, UniProt P35400); assay: (§1) Positive allosteric modulation of rat mGlu7 receptor expressed in HEK293 cells co-expressing Gai5 assessed as potentiation of L-AP4-induced calcium mobilization preincubated for 140 secs and treated with EC20 L-AP4 for 125 secs and followed by subsequent addition of EC80 L-AP4 by Fluo-4-AM dye based fluorescence assay; assay type: functional, cell-based
[2] = molecular target: Metabotropic glutamate receptor 7 (Rattus norvegicus) (UniProt P35400); assay: as §1, with “assay relative to maximal induction of L-AP4” for “assay”; assay type: functional, cell-based; conditions: filed as positive allosteric modulator, time 140.0 sec
[3] = molecular target: T1, Metabotropic glutamate receptor 7; assay: Positive allosteric modulation of rat mGlu7 expressed in HEK293 cells co- expressing GIRK assessed as potentiation of L-AP4-induced thallium flux incubated for 140 sec by FluoZin2-AM dye based fluorescence analysis; assay type: cell-based
[4] = molecular target: hERG (KCNH2) (Homo sapiens, UniProt Q12809); assay: Displacement of [3H]-Astemizole from human recombinant full length ERG channel at 10 uM incubated for 60 mins by scintillation counting analysis relative to control; conditions: probe [3H]-astemizole
[5] = molecular target: dopamine transporter (DAT) (Homo sapiens, UniProt Q01959); assay: Displacement of […] from recombinant human Dopamine transporter at 10 uM after 120 mins by scintillation counting analysis relative to control; assay type: ADME
[6] = molecular target: Sodium-dependent dopamine transporter (Homo sapiens, UniProt Q01959); assay: Displacement of […] from recombinant human Dopamine transporter after 120 mins by scintillation counting analysis; assay type: ADME
[7] = Hepatic intrinsic clearance in rat liver microsomes at 1 uM preincubated for 5 mins followed by NADPH addition and measured up to 45 mins by LC-MS/MS analysis; assay type: ADME, Microsome; conditions: read-out: CLH
[8] = Hepatic intrinsic clearance in mouse liver microsomes at 1 uM preincubated for 5 mins followed by NADPH addition and measured up to 45 mins by LC-MS/MS analysis; assay type: ADME, Microsome; conditions: read-out: CLH
[9] = Fraction unbound in rat plasma at 5 uM incubated for 4 hrs by equilibrium dialysis based LC-MS/MS analysis; assay type: ADME, cell-free
[10] = Fraction unbound in mouse plasma at 5 uM incubated for 4 hrs by equilibrium dialysis based LC-MS/MS analysis; assay type: ADME, cell-free
[11] = Fraction unbound in rat brain at 5 uM incubated for 6 hrs by equilibrium dialysis based LC-MS/MS analysis; assay type: ADME, tissue-based
[12] = Fraction unbound in mouse brain at 5 uM incubated for 6 hrs by equilibrium dialysis based LC-MS/MS analysis; assay type: ADME, tissue-based
[13] = Plasma to brain permeability coefficient, Kp of the compound in Sprague-Dawley rat at 0.2 mg/kg, iv measured after 0.25 hrs by LC-MS/MS analysis; assay type: ADME, organism-based
[14] = Unbound plasma to brain permeability coefficient, Kp of the compound in Sprague-Dawley rat at 0.2 mg/kg, iv measured after 0.25 hrs by LC-MS/MS analysis; assay type: ADME, organism-based; conditions: read-out: K(p,uu,brain)
[15] = Plasma to brain permeability coefficient, Kp of the compound in CD-1 mouse at 10 mg/kg, ip measured after 0.5 hrs by LC-MS/MS analysis; assay type: ADME, organism-based
[16] = Unbound plasma to brain permeability coefficient, Kp of the compound in CD-1 mouse at 10 mg/kg, ip measured after 0.5 hrs by LC-MS/MS analysis; assay type: ADME, organism-based; conditions: read-out: K(p,uu,brain)
[17] = Oral bioavailability in Sprague-Dawley rat at 10 mg/kg measured upto 24 hrs by LC-MS/MS analysis; assay type: ADME, organism-based; conditions: in vivo
[18] = molecular target: Sigma non-opioid intracellular receptor 1 (Homo sapiens, UniProt Q99720); assay: Displacement of [3H]-Pentazocine from human recombinant sigma 1 receptor incubated for 120 mins by scintillation counting analysis relative to control
[19] = molecular target: Metabotropic glutamate receptor 1 (Homo sapiens, UniProt Q13255); assay: Positive allosteric modulation of mGlu1 receptor (unknown origin)
[20] = molecular target: Metabotropic glutamate receptor 2 (Homo sapiens, UniProt Q14416); assay: Positive allosteric modulation of mGlu2 receptor (unknown origin)
[21] = molecular target: Metabotropic glutamate receptor 3 (Homo sapiens, UniProt Q14832); assay: Positive allosteric modulation of mGlu3 receptor (unknown origin)
[22] = molecular target: Metabotropic glutamate receptor 5 (Homo sapiens, UniProt P41594); assay: Positive allosteric modulation of mGlu5 receptor (unknown origin)
[23] = molecular target: Metabotropic glutamate receptor 4 (Homo sapiens, UniProt Q14833); assay: Positive allosteric modulation of mGlu4 receptor (unknown origin)
[24] = molecular target: Metabotropic glutamate receptor 8 (Homo sapiens, UniProt O00222); assay: Positive allosteric modulation of mGlu8 receptor (unknown origin)
[25] = Half-life in Sprague-Dawley rat at 1 mg/kg, iv and 10 mg/kg, po measured up to 24 hrs by LC-MS/MS analysis; assay type: ADME, organism-based; conditions: in vivo
[26] = molecular target: Metabotropic glutamate receptor 7 (Rattus norvegicus) (UniProt P35400); assay: Positive allosteric modulation of rat mGlu7 expressed in HEK293 cells co- expressing GIRK assessed as potentiation of L-AP4-induced thallium flux incubated for 140 sec by FluoZin2-AM dye based fluorescence analysis relative to maximal induction of L-AP4; assay type: cell-based; conditions: filed as positive allosteric modulator

Metabotropic glutamate receptor 7 (Rattus norvegicus), sequence (P35400 whole entry): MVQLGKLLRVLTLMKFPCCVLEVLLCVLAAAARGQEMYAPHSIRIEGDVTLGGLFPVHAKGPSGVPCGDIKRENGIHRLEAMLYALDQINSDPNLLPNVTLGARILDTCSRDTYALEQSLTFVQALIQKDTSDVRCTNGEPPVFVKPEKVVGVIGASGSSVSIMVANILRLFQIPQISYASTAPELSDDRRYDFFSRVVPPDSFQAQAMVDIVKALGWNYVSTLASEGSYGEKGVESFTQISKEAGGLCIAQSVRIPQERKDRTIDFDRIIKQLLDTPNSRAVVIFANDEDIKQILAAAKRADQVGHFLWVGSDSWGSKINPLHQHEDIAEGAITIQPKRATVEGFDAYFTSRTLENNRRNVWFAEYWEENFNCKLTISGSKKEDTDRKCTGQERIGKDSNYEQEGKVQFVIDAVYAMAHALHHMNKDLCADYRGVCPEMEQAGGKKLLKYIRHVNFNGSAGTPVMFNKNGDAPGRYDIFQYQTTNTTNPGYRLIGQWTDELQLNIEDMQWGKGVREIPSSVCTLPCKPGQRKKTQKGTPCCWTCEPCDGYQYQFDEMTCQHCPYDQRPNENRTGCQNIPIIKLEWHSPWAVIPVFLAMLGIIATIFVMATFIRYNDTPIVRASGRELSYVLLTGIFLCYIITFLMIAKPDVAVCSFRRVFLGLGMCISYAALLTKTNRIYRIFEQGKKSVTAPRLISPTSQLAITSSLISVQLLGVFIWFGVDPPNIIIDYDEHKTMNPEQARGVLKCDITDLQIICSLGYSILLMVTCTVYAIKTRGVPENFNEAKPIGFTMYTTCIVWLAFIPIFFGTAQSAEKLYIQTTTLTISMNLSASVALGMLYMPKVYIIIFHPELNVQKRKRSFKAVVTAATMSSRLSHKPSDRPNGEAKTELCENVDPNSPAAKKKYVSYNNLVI
T1 sequence (P35400 whole entry): as above
Sodium-dependent dopamine transporter, sequence (Q01959 whole entry): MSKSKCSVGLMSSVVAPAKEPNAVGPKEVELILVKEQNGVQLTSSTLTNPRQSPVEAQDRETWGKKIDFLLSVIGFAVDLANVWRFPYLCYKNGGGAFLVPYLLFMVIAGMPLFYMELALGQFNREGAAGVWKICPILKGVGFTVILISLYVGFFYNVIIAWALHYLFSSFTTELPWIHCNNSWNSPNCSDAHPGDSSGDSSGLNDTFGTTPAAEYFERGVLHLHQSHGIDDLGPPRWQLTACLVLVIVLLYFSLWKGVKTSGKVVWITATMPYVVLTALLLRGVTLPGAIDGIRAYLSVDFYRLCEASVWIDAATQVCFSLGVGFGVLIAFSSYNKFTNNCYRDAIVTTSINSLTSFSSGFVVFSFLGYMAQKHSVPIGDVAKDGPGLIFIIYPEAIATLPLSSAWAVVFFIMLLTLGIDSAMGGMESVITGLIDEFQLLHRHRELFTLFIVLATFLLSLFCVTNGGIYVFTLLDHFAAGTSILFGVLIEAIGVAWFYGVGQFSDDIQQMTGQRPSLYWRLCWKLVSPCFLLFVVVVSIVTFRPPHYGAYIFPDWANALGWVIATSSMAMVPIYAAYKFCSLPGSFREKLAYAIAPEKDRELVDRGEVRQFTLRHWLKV
Sigma non-opioid intracellular receptor 1, sequence (Q99720 whole entry): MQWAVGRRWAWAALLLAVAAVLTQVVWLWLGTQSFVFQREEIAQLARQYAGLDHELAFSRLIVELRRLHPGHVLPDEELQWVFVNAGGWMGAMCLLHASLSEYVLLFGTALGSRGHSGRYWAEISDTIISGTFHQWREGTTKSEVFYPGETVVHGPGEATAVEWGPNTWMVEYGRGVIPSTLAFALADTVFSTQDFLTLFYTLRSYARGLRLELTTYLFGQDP
Metabotropic glutamate receptor 5, sequence (P41594 whole entry): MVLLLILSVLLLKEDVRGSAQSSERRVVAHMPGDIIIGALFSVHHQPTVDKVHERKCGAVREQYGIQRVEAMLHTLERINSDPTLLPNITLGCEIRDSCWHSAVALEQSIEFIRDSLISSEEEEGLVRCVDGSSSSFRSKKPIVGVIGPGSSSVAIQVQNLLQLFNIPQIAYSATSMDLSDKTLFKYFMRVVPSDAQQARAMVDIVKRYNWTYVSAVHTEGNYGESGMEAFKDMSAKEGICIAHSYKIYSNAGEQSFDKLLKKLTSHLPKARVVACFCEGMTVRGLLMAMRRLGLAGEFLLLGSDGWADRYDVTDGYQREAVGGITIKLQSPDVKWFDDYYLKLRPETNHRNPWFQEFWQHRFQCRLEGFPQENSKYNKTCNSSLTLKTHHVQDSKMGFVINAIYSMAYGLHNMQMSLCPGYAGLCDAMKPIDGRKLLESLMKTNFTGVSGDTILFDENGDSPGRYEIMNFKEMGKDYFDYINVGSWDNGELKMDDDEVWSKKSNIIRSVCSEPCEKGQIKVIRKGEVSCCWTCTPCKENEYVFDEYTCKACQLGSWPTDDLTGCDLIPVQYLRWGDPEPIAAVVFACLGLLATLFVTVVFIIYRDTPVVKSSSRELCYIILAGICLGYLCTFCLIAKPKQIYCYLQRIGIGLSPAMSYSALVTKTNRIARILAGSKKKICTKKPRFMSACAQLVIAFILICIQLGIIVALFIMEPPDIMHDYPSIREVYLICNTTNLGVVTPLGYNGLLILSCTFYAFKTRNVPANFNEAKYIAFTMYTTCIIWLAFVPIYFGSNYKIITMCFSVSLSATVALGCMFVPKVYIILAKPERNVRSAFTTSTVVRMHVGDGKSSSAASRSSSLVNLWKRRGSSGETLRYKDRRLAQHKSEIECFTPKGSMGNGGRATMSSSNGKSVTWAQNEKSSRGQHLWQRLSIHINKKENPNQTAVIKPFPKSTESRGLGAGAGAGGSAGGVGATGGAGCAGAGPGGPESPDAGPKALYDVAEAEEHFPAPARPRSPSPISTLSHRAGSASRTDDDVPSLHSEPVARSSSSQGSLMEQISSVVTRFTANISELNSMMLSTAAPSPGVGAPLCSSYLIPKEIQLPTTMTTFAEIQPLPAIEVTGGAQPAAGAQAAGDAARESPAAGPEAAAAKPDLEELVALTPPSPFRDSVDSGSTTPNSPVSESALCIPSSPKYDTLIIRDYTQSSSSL
Metabotropic glutamate receptor 8, sequence (O00222 whole entry): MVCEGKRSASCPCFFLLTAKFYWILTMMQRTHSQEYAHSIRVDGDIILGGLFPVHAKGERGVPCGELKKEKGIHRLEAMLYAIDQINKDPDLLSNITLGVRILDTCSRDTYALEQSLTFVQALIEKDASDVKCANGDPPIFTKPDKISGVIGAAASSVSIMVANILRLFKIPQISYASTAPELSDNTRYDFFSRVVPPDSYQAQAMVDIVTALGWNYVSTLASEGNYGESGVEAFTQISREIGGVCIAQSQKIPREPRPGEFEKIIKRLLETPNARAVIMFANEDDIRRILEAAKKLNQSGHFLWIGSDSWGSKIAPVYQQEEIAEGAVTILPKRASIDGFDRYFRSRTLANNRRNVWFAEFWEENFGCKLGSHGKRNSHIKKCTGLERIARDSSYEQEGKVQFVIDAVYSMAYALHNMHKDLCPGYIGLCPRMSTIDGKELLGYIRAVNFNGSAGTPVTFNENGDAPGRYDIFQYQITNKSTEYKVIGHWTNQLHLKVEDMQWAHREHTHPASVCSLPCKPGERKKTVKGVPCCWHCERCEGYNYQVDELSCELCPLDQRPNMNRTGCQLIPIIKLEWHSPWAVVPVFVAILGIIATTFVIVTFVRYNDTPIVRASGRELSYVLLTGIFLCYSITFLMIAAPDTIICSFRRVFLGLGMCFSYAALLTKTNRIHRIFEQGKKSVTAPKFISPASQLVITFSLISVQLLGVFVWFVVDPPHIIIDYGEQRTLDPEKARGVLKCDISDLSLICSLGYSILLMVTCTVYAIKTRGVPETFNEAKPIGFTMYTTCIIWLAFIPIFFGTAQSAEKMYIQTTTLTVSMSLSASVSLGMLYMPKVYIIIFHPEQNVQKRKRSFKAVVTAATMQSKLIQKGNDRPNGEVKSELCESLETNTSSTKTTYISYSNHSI
Metabotropic glutamate receptor 2, sequence (Q14416 whole entry): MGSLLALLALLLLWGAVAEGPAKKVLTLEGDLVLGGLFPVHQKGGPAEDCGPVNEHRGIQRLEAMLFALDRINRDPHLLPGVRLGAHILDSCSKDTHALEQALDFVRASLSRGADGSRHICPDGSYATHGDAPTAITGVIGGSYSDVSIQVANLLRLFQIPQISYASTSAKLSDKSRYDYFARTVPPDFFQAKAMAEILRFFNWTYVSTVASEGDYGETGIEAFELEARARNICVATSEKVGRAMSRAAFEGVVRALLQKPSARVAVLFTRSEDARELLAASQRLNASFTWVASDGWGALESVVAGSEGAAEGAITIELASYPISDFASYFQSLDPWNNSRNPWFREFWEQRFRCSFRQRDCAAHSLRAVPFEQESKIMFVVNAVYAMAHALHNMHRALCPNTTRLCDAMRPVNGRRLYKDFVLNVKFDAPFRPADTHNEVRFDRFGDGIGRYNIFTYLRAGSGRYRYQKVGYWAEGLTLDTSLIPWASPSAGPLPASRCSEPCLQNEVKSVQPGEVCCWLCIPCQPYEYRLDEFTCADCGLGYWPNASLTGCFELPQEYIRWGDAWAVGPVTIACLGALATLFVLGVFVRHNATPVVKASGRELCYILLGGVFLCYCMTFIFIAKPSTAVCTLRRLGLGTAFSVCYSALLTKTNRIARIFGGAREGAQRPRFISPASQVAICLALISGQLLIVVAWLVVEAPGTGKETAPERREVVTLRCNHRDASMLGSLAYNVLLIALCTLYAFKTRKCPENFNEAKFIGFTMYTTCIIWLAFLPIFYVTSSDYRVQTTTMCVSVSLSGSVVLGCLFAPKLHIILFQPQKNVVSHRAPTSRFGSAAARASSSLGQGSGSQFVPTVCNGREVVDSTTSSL
dopamine transporter (DAT), sequence (Q01959 whole entry): as the sequence (Q01959 whole entry) above

EC50 ([1]; read-out: EC50): 1500 nM
Compound: [2H]C([2H])([2H])Oc1cccc2c(N3CCN(c4ccccc4F)CC3)c(C#N)cnc12

EC50 ([1]; read-out: EC50): 1100 nM
Compound: N#Cc1cnc2c(OC3CCOC3)cccc2c1N1CCN(c2ccccc2F)CC1 (single isomer, unassigned; (+))

EC50 ([1]; read-out: EC50): > 10000 nM | Activity [2]: 23%
Compound: N#Cc1cnc2c(-n3cncn3)cccc2c1N1CCN(c2ccccc2F)CC1

EC50 ([1]; read-out: EC50): 1300 nM
Compound: N#Cc1cnc2c(OCC3CCOC3)cccc2c1N1CCN(c2ccccc2F)CC1 (stereo in doubt; (-)-20f)

EC50 ([1]; read-out: EC50): 1100 nM | EC50 ([1]; read-out: pEC50 (converted)): 1580 nM | EC50 [3]: 990 nM | inhibition at 2 h, 10 µM [5]: < 50% | Ki [6]: > 10000 nM | CLint scaled at 1 µM [7]: 46.9 mL/min/kg | CLint scaled at 1 µM [8]: 84.4 mL/min/kg | fraction unbound at 4 h, 5 µM [9]: 0.01 | fraction unbound at 4 h, 5 µM [10]: 0.01 | fraction unbound at 6 h, 5 µM [11]: 0.002 | fraction unbound at 6 h, 5 µM [12]: 0.001 | Kp at 0.25 h [13]: 4.78 | Kp uu at 0.25 h [14]: 0.96 | Kp at 0.5 h [15]: 2.74 | Kp uu at 0.5 h [16]: 0.23 | bioavailability [17]: 69.5% | IC50 [18]: 3500 nM | EC50 [19]: > 30000 nM | EC50 [20]: > 30000 nM | EC50 [21]: > 30000 nM | EC50 [22]: > 30000 nM | EC50 [23]: > 30000 nM | EC50 [24]: > 10000 nM | half-life [25]: 7.5 h
Compound: [2H]C([2H])([2H])Oc1cc(F)cc2c(N3CCN(c4ccccc4F)CC3)c(C#N)cnc12
inhibition at 1 h, 10 µM [4]: < 50%

EC50 ([1]; read-out: EC50): 1900 nM
Compound: N#Cc1cnc2c(OCC3CCOC3)cccc2c1N1CCN(c2ccccc2F)CC1 (single isomer, unassigned; (+))

EC50 ([1]; read-out: EC50): > 10000 nM | Activity [2]: 68%
Compound: N#Cc1cnc2c(OC(F)F)cccc2c1N1CCN(c2ccccc2F)CC1

Activity [2]: 74% | Activity [26]: 62.2%
Compound: N#Cc1cnc2c(OC3CCOC3)cccc2c1N1CCN(c2ccccc2F)CC1 (racemic)

The next lines start with the compound.

Compound: N#Cc1cnc2c(-n3ccnc3)cccc2c1N1CCN(c2ccccc2F)CC1
EC50 ([1]; read-out: EC50): 6700 nM | Activity [2]: 81%

Compound: N#Cc1cnc2c(OC(F)F)cc(F)cc2c1N1CCN(c2ccccc2F)CC1
EC50 ([1]; read-out: EC50): 3800 nM | Activity [2]: 98%

Compound: N#Cc1cnc2c(OCC3CCOC3)cc(F)cc2c1N1CCN(c2ccccc2F)CC1 (configuration not stated)
EC50 ([1]; read-out: EC50): 650 nM | Activity [2]: 76%

Compound: N#Cc1cnc2c(N3CCCCC3)cccc2c1N1CCN(c2ccccc2F)CC1
EC50 ([1]; read-out: EC50): > 10000 nM | Activity [2]: 24%

Compound: COc1c(F)c(F)cc2c(N3CCN(c4ccccc4F)CC3)c(C#N)cnc12
EC50 ([1]; read-out: EC50): 1100 nM | Activity [2]: 62% | IC50 [6]: 2200 nM

Compound: N#Cc1cnc2c(OC3CCOC3)cc(F)cc2c1N1CCN(c2ccccc2F)CC1 (configuration not stated)
EC50 ([1]; read-out: EC50): 510 nM | Activity [2]: 71%

Compound: CC(C)Oc1cc(F)cc2c(N3CCN(c4ccccc4F)CC3)c(C#N)cnc12
EC50 ([1]; read-out: EC50): 690 nM | EC50 [3]: 750 nM | Activity [2]: 82% | Activity [26]: 54.5% | Ki [6]: > 10000 nM | CLint scaled at 1 µM [7]: 50.7 mL/min/kg | CLint scaled at 1 µM [8]: 76.2 mL/min/kg | fraction unbound at 4 h, 5 µM [9]: 0.005 | fraction unbound at 4 h, 5 µM [10]: 0.004 | fraction unbound at 6 h, 5 µM [11]: 0.001 | fraction unbound at 6 h, 5 µM [12]: 0.001 | Kp at 0.25 h [13]: 4.99 | Kp uu at 0.25 h [14]: 1

Compound: N#Cc1cnc2c(OC3CCC3)cc(F)cc2c1N1CCN(c2ccccc2F)CC1
EC50 ([1]; read-out: EC50): > 10000 nM | Activity [2]: 23%

Compound: N#Cc1cnc2c(-n3cccn3)cccc2c1N1CCN(c2ccccc2F)CC1
EC50 ([1]; read-out: EC50): > 10000 nM | Activity [2]: 22%

Compound: N#Cc1cnc2c(N3CCC(F)(F)CC3)cccc2c1N1CCN(c2ccccc2F)CC1
EC50 ([1]; read-out: EC50): > 10000 nM | Activity [2]: 22%
